For this assay, the target named is T1, F508del (Homo sapiens, UniProt P13569, DEL508-508).
T1 construct: expressed in transfected cells
T1 sequence (P13569 with tags, fused parts or gaps DEL508-508): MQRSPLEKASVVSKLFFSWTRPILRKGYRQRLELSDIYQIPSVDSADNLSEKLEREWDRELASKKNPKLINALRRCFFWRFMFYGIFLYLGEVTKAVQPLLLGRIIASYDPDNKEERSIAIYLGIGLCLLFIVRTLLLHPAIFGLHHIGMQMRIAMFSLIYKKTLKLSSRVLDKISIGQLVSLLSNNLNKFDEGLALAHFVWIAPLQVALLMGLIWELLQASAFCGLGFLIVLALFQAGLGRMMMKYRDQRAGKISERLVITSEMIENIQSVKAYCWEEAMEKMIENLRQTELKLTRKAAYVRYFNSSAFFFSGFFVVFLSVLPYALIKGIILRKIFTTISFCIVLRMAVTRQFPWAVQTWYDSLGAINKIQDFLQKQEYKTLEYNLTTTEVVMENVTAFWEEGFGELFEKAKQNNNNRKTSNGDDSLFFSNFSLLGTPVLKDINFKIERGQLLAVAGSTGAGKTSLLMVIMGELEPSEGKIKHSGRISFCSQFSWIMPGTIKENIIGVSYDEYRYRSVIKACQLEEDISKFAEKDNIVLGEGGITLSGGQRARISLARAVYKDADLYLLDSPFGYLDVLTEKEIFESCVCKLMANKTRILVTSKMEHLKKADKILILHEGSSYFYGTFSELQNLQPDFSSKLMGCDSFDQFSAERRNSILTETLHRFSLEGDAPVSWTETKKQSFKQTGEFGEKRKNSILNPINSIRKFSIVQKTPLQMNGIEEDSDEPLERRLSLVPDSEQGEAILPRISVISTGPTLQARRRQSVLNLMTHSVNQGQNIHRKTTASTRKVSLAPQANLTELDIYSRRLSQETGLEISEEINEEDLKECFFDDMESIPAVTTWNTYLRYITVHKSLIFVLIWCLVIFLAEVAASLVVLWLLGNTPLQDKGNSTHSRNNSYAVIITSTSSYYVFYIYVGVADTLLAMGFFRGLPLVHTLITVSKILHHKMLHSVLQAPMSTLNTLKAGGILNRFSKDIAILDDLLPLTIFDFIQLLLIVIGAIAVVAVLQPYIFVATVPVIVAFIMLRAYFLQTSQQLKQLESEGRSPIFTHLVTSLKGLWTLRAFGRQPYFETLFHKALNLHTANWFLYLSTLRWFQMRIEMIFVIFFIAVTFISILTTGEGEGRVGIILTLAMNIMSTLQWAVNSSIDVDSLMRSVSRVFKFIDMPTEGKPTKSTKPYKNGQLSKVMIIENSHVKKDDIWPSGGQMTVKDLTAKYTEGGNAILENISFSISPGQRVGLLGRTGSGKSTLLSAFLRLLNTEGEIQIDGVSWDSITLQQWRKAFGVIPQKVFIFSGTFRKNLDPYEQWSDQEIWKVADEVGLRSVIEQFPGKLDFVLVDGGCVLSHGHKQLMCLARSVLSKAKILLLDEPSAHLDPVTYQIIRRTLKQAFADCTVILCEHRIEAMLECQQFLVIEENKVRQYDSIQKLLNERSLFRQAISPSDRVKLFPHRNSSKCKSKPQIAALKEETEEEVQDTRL
The assay can be described thus: Protocol 1: membrane potential optical assay (FLIPR III, voltage sensing dye), identification of potentiator compounds. The class given is cell-based. The settings on record: Table 3, compounds of Table 1. In short, it runs like this: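 Membrane potential in forskolin-activated, temperature-rescued F508del NIH 3T3 cells is followed with a voltage-sensing dye on FLIPR III. A chloride ion gradient created at the single addition step provides the driving force, after prior compound treatment.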
Consider `CC(C)Oc1ccc(-c2ccc(C(=O)NS(=O)(=O)c3cccc(N)n3)c(N3CCCC(OCC4CC4)C3)n2)cn1` (stereo not drawn) [Compound 858, N-[(6-amino-2-pyridyl)sulfonyl]-2-[3-(cyclopropylmethoxy)-1-piperidyl]-6-(6-isopropoxy-3-pyridyl)pyridine-3-carboxamide], for which the EC30 entry is “++ (“++” means between 3 uM and 10 uM)”. Next, `C[C@@H]1CN(c2nc(C3=CCCN(C(=O)OC(C)(C)C)C3)ccc2C(=O)NS(=O)(=O)c2cccc(N)n2)C(C)(C)C1` [Compound 1371, tert-butyl 5-[5-[(6-amino-2-pyridyl)sulfonylcarbamoyl]-6-[(4S)-2,2,4-trimethylpyrrolidin-1-yl]-2-pyridyl]-3,6-dihydro-2H-pyridine-1-carboxylate]: “+++ (“+++” means <3 uM)”; `CCCCOc1ccc(-c2ccc(C(=O)NS(=O)(=O)c3ccc[nH]c3=O)c(Oc3c(C)cc(C)cc3C)n2)cc1F` [Compound 1187, 6-(4-butoxy-3-fluoro-phenyl)-N-[(2-oxo-1H-pyridin-3-yl)sulfonyl]-2-(2,4,6-trimethylphenoxy)pyridine-3-carboxamide]: “+++ (“+++” means <3 uM)”. Next, `CCOc1cc(F)cc(-c2ccc(C(=O)NS(=O)(=O)c3cccc(N)n3)c(N3CC(C)CC3(C)C)n2)c1` (stereo not drawn) [Compound 1099, N-[(6-amino-2-pyridyl)sulfonyl]-6-(3-ethoxy-5-fluoro-phenyl)-2-(2,2,4-trimethylpyrrolidin-1-yl)pyridine-3-carboxamide]: “+++ (“+++” means <3 uM)”; `CC(C)Oc1ccc(-c2ccc(C(=O)NS(=O)(=O)c3cccc(N)n3)c(N3[C@H](C)CC[C@H]3C)n2)cn1` [Compound 1198, N-[(6-amino-2-pyridyl)sulfonyl]-2-[(2R,5R)-2,5-dimethylpyrrolidin-1-yl]-6-(6-isopropoxy-3-pyridyl)pyridine-3-carboxamide]: “+++ (“+++” means <3 uM)”; `CC1CN(c2nc(C(C)(C)C)c(C3=CCC(C(=O)O)CC3)cc2C(=O)NS(=O)(=O)c2cccc(N)n2)C(C)(C)C1` (stereo not drawn) [Compound 1381, 4-[5-[(6-amino-2-pyridyl)sulfonylcarbamoyl]-2-tert-butyl-6-(2,2,4-trimethylpyrrolidin-1-yl)-3-pyridyl]cyclohex-3-ene-1-carboxylic acid]: “++ (“++” means between 3 uM and 10 uM)”. With `CC1CN(c2ncccc2C(=O)NS(=O)(=O)c2cccc(Nc3cc(F)ccc3Cl)n2)C(C)(C)C1` (stereo not drawn) [Compound 1941, N—[[6-(2-chloro-5-fluoro-anilino)-2-pyridyl]sulfonyl]-2-(2,2,4-trimethylpyrrolidin-1-yl)pyridine-3-carboxamide], the EC30 entry is on record as “+++ (“+++” means <3 uM)”.

Take `CC(C)Oc1ccc(-c2ccc(C(=O)NS(=O)(=O)c3cccc(N)n3)c(N3C[C@@H](C)C[C@H](C)C3)n2)cn1` [Compound 1136, N-[(6-amino-2-pyridyl)sulfonyl]-2-[(3S,5S)-3,5-dimethyl-1-piperidyl]-6-(6-isopropoxy-3-pyridyl)pyridine-3-carboxamide]: the EC30 result is “+++ (“+++” means <3 uM)”.

Turning to `CCOc1cccc2c1CN(Cc1c(C)cc(C)cc1C)[C@]2(C)C(=O)NS(=O)(=O)c1cccc(N)n1` [Compound 1372, (1S)—N-[(6-amino-2-pyridyl)sulfonyl]-4-ethoxy-1-methyl-2-[(2,4,6-trimethylphenyl)methyl]isoindoline-1-carboxamide], the EC30 entry is on record as “+++ (“+++” means <3 uM)”. For `CC(C)COc1cc(F)cc(-c2ccc(C(=O)NS(=O)(=O)c3cccc(N)n3)c(N3CCCC34CCCC4)n2)c1` [Compound 926, N-[(6-amino-2-pyridyl)sulfonyl]-2-(9-azaspiro[4.4]nonan-9-yl)-6-(3-fluoro-5-isobutoxy-phenyl)pyridine-3-carboxamide], the EC30 entry is recorded as “+++ (“+++” means <3 uM)”. Turning to `Cc1ccc(CNc2cccc(S(=O)(=O)NC(=O)c3cccnc3N3CC(C)CC3(C)C)n2)cc1` (stereo not drawn) [Compound 1892, N—[[6-(p-tolylmethylamino)-2-pyridyl]sulfonyl]-2-(2,2,4-trimethylpyrrolidin-1-yl)pyridine-3-carboxamide], the EC30 entry is listed as “+++ (“+++” means <3 uM)”. As for `COc1cccc2c1CN(Cc1c(C)cc(C)cc1C)C2(C)C(=O)NS(=O)(=O)c1cccc(N)n1` (stereo not drawn) [Compound 1161, N-[(6-amino-2-pyridyl)sulfonyl]-4-methoxy-1-methyl-2-[(2,4,6-trimethylphenyl)methyl]isoindoline-1-carboxamide], the entry is “+++ (“+++” means <3 uM)”; as for `CC(C)(C)c1ccc(C(=O)NS(=O)(=O)c2cccc(N)n2)c(C2CCCC2)n1` [Compound 1219, N-[(6-amino-2-pyridyl)sulfonyl]-6-tert-butyl-2-cyclopentyl-pyridine-3-carboxamide], “++ (“++” means between 3 uM and 10 uM)”; as for `CC(C)COc1cc(F)cc(-c2ccc(C(=O)NS(=O)(=O)c3ccn[nH]3)c(N3CCCC(F)C3)n2)c1` (stereo not drawn) [Compound 878, 6-(3-fluoro-5-isobutoxy-phenyl)-2-(3-fluoro-1-piperidyl)-N-(1H-pyrazol-5-ylsulfonyl)pyridine-3-carboxamide], “++ (“++” means between 3 uM and 10 uM)”. As for `CC(C)COc1ccn(-c2ccc(C(=O)NS(=O)(=O)c3cccc(N)n3)c(N3C[C@@H](C)CC3(C)C)n2)n1` [Compound 1620, N-[(6-amino-2-pyridyl)sulfonyl]-6-(3-isobutoxypyrazol-1-yl)-2-[(4S)-2,2,4-trimethylpyrrolidin-1-yl]pyridine-3-carboxamide], the entry is “+++ (“+++” means <3 uM)”; as for `COc1cccc(OC)c1-c1ccc(C(=O)NS(=O)(=O)c2cccnc2N)c(N2C[C@@H](C)CC2(C)C)n1` [Compound 1994, N-[(2-amino-3-pyridyl)sulfonyl]-6-(2,6-dimethoxyphenyl)-2-[(4S)-2,2,4-trimethylpyrrolidin-1-yl]pyridine-3-carboxamide], “+++ (“+++” means <3 uM)”; as for `CC(C)(C)c1ccc(C(=O)NS(=O)(=O)c2cccc(N)n2)c(N2CCC(C(C)(C)O)CC2)n1` [Compound 1038, N-[(6-amino-2-pyridyl)sulfonyl]-6-tert-butyl-2-[4-(1-hydroxy-1-methyl-ethyl)-1-piperidyl]pyridine-3-carboxamide], “++ (“++” means between 3 uM and 10 uM)”. For the compound `CCc1cnc2c(c1)cc(C(=O)NS(=O)(=O)c1cccc(N)n1)n2Cc1c(C)cc(C)cc1C` [Compound 816, N-[(6-amino-2-pyridyl)sulfonyl]-5-ethyl-1-[(2,4,6-trimethylphenyl)methyl]pyrrolo[2,3-b]pyridine-2-carboxamide], the EC30 result is “++ (“++” means between 3 uM and 10 uM)”. As to `C=C(C)c1ccc(C(=O)NS(=O)(=O)c2cccc(N)n2)c(N2C[C@@H](C)CC2(C)C)n1` [Compound 1423, N-[(6-amino-2-pyridyl)sulfonyl]-6-isopropenyl-2-[(4S)-2,2,4-trimethylpyrrolidin-1-yl]pyridine-3-carboxamide], the EC30 entry is recorded as “+++ (“+++” means <3 uM)”. Consider `Cc1ccc(-c2ccc(C(=O)NS(=O)(=O)c3nccnc3N)c(-c3ccc(C)cc3)n2)cc1` [Compound 820, N-(3-aminopyrazin-2-yl)sulfonyl-2,6-bis(p-tolyl)pyridine-3-carboxamide], for which the EC30 entry is “+ (“+” means greater than 10 uM)”.

With `CC(C)COc1cc(F)cc(-c2ccc(C(=O)NS(=O)(=O)c3ccccc3O)c(N3C[C@@H](C)CC3(C)C)n2)c1` [Compound 1836, 6-(3-fluoro-5-isobutoxy-phenyl)-N-(2-hydroxyphenyl)sulfonyl-2-[(4S)-2,2,4-trimethylpyrrolidin-1-yl]pyridine-3-carboxamide], the EC30 entry was “+++ (“+++” means <3 uM)”.

As for `CC(C)COc1cc(F)cc(-c2ccc(C(=O)NS(=O)(=O)c3cccc(N)n3)c(OC(C)c3ccccc3)n2)c1` (stereo not drawn) [Compound 874, N-[(6-amino-2-pyridyl)sulfonyl]-6-(3-fluoro-5-isobutoxy-phenyl)-2-(1-phenylethoxy)pyridine-3-carboxamide], the EC30 result is recorded as “+++ (“+++” means <3 uM)”.

On to `CC(C)Oc1ccc(-c2ccc(C(=O)NS(=O)(=O)c3cccc(N)n3)c(N3CCCC(C)(C)C3)n2)cn1` [Compound 1283, N-[(6-amino-2-pyridyl)sulfonyl]-2-(3,3-dimethyl-1-piperidyl)-6-(6-isopropoxy-3-pyridyl)pyridine-3-carboxamide], for which the EC30 entry was “+++ (“+++” means <3 uM)”. Next, `CC(C)COc1cc(F)cc(-c2ccc(C(=O)NS(=O)(=O)c3cccc(N)n3)c(OC(C)(C)Cc3ccccc3)n2)c1` [Compound 1365, N-[(6-amino-2-pyridyl)sulfonyl]-2-(1,1-dimethyl-2-phenyl-ethoxy)-6-(3-fluoro-5-isobutoxy-phenyl)pyridine-3-carboxamide]: “+++ (“+++” means <3 uM)”; `CC(C)COc1cc(F)cc(-c2ccc(C(=O)NS(=O)(=O)c3cccc(N)n3)c(OC3CCCC3(C)C)n2)c1` (stereo not drawn) [Compound 1629, N-[(6-amino-2-pyridyl)sulfonyl]-2-(2,2-dimethylcyclopentoxy)-6-(3-fluoro-5-isobutoxy-phenyl)pyridine-3-carboxamide]: “+++ (“+++” means <3 uM)”; `CC(C)COc1cc(F)cc(-c2ccc(C(=O)NS(=O)(=O)c3ccn[nH]3)c(N3CCCC(C4CC4)C3)n2)c1` (stereo not drawn) [Compound 1286, 2-(3-cyclopropyl-1-piperidyl)-6-(3-fluoro-5-isobutoxy-phenyl)-N-(1H-pyrazol-5-ylsulfonyl)pyridine-3-carboxamide]: “+++ (“+++” means <3 uM)”. As for `CC(C)COc1cc(F)cc(-c2ccc(C(=O)NS(=O)(=O)c3cccnc3N)c(N3[C@H](C)CC[C@@H]3C)n2)c1` [Compound 1159, N-[(2-amino-3-pyridyl)sulfonyl]-2-[(2S,5R)-2,5-dimethylpyrrolidin-1-yl]-6-(3-fluoro-5-isobutoxy-phenyl)pyridine-3-carboxamide], the entry is “+++ (“+++” means <3 uM)”.

For the origin of these results see patent US10758534B2 (Vertex Pharmaceuticals Incorporated, priority 2014, dated 2020).
